Results reported in ChEMBL document CHEMBL4330173, “TRPV1 Modulators for the Treatment of Pain and Inflammation” (ACS Med Chem Lett, 2019).

What was measured:
[1] = target: T1, Transient receptor potential cation channel subfamily V member 1 (Rattus norvegicus, UniProt O35433); assay: Agonist activity at rat TRPV1 expressed in human SH-SY5Y cells assessed as intracellular calcium accumulation by Fluo-4 NW dye based fluorescence assay; type: cell-based
[2] = target: T1, Transient receptor potential cation channel subfamily V member 1; assay: Antagonist activity at rat TRPV1 expressed in human SH-SY5Y cells assessed as reduction in capsaicin-induced intracellular calcium accumulation preincubated with cells followed by capsaicin addition by Fluo-4 NW dye based fluorescence assay; type: cell-based

T1 sequence (O35433 whole entry): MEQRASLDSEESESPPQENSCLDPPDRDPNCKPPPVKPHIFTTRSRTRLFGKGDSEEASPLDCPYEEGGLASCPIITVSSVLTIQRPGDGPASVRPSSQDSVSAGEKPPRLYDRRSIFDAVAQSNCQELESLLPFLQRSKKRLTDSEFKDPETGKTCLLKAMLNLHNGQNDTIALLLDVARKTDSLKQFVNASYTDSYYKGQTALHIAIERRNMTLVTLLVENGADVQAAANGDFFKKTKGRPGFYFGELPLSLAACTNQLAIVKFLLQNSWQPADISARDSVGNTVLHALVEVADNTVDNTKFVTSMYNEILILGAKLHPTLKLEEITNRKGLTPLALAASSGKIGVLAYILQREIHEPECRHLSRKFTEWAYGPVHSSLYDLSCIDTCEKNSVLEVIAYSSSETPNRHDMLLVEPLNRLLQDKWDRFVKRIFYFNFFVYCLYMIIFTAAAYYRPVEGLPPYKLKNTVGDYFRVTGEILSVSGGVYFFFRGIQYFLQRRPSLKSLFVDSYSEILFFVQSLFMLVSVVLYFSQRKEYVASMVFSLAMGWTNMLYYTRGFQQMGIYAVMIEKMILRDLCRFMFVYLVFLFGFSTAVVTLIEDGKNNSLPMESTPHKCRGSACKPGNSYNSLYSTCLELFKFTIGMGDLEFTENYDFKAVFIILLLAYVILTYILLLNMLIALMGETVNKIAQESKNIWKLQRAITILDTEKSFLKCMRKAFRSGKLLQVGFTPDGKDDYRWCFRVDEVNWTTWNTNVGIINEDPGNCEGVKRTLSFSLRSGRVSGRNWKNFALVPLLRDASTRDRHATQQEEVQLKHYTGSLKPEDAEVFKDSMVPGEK

Compound	EC50 [1] [nM]	IC50 [2] [nM]
CC(C)=CCC/C(C)=C/CC/C(C)=C/CC/C=C(\C)CC/C=C(\C)CCC(=O)OCC(=O)NCc1ccc(O)c(O)c1	15	
COc1cc(CNC(=O)COC(=O)/C=C(\C)CCC=C(C)C)c(I)cc1O		320
